Experimental data published in ChEMBL document CHEMBL4340512, “Discovery of novel triazolo[4,3-b]pyridazin-3-yl-quinoline derivatives as PIM inhibitors” (Eur J Med Chem, 2019).
pEC50, pIC50: −log10 of the molar value.

Legend:
SW480 = assay: Antiproliferative activity against human SW480 cells incubated for 72 hrs by CellTiter-Glo luminescence assay; type: functional; conditions: SW480, 72 h
U-87 MG [1] = assay: Antiproliferative activity against human U87MG assessed as combination index at 20 uM incubated for 72 hrs in presence of GI50 dose of Lapatinib by CellTiter-Glo luminescence assay; type: functional, U-87MG ATCC
[2] = target: T1, Serine/threonine-protein kinase pim-1 (Homo sapiens, UniProt P11309); assay: Inhibition of PIM1 in human NCI-H1299 cells assessed as reduction in BAD phosphorylation at Ser-112 residue incubated for 4 hrs by ELISA; type: cell-based; conditions: read-out: EC50
PC-3 [3] = assay: Antiproliferative activity against human PC3 cells incubated for 72 hrs by CellTiter-Glo luminescence assay; type: functional; conditions: PC-3, 72 h
MV4-11 [4] = assay: Antiproliferative activity against human MV4-11 assessed as combination index at 10 uM incubated for 72 hrs in presence of GI50 dose of GDC-0941 by CellTiter-Glo luminescence assay; type: functional
A498 = assay: Antiproliferative activity against human A498 cells incubated for 72 hrs by CellTiter-Glo luminescence assay; type: functional; conditions: A498, 72 h
SK-MEL19 [5] = assay: Antiproliferative activity against human SK-MEL-19 assessed as combination index at 5 uM incubated for 72 hrs in presence of GI50 dose of GDC-0941 by CellTiter-Glo luminescence assay; type: functional
COLO 205 = assay: Antiproliferative activity against human COLO205 cells incubated for 72 hrs by CellTiter-Glo luminescence assay; type: functional; conditions: COLO 205, 72 h
T47D [6] = assay: Antiproliferative activity against human T47D assessed as combination index at 20 uM incubated for 72 hrs in presence of GI50 dose of GDC-0941 by CellTiter-Glo luminescence assay; type: functional
T47D [7] = assay: Antiproliferative activity against human T47D cells incubated for 72 hrs by CellTiter-Glo luminescence assay; type: functional
Raji = assay: Antiproliferative activity against human Raji cells incubated for 72 hrs by CellTiter-Glo luminescence assay; type: functional
BXPC-3 = assay: Antiproliferative activity against human BxPC3 cells incubated for 72 hrs by CellTiter-Glo luminescence assay; type: functional; conditions: BXPC-3, 72 h
DU-145 = assay: Antiproliferative activity against human DU145 assessed as combination index at 20 uM incubated for 72 hrs in presence of GI50 dose of Lapatinib by CellTiter-Glo luminescence assay; type: functional
JeKo-1 = assay: Antiproliferative activity against human JeKo1 assessed as combination index at 10 uM incubated for 72 hrs in presence of GI50 dose of Lapatinib by CellTiter-Glo luminescence assay; type: functional
U-87 MG [8] = assay: Antiproliferative activity against human U87MG assessed as combination index at 20 uM incubated for 72 hrs in presence of GI50 dose of GDC-0941 by CellTiter-Glo luminescence assay; type: functional, U-87MG ATCC
HCT-116 [9] = assay: Antiproliferative activity against human HCT116 assessed as combination index at 20 uM incubated for 72 hrs in presence of GI50 dose of Lapatinib by CellTiter-Glo luminescence assay; type: functional
[10] = Clearance in iv dosed Balb/c mouse administered as single dose measured after 0.08 to 4 hrs by HPLC/MS analysis; type: ADME, organism-based; conditions: in vivo
U-87 MG [11] = assay: Antiproliferative activity against human U87MG cells incubated for 72 hrs by CellTiter-Glo luminescence assay; type: functional, U-87MG ATCC
[12] = target: Voltage-gated inwardly rectifying potassium channel KCNH2 (Homo sapiens, UniProt Q12809)
A549 = assay: Antiproliferative activity against human A549 cells incubated for 72 hrs by CellTiter-Glo luminescence assay; type: functional; conditions: A549, 72 h
[13] = target: Serine/threonine-protein kinase pim-3 (Homo sapiens, UniProt Q86V86); assay: Inhibition of N-terminal 6-His tagged human recombinant PIM3 using PIM tide (ARKRRRHPSGPPTA) as substrate incubated for 1 hr by fluorescence based assay
T84 = assay: Antiproliferative activity against human T84 cells incubated for 72 hrs by CellTiter-Glo luminescence assay; type: functional; conditions: T84, 72 h
HCT-116 [14] = assay: Antiproliferative activity against human HCT116 cells incubated for 72 hrs by CellTiter-Glo luminescence assay; type: functional; conditions: HCT-116, 72 h
PC-3 [15] = assay: Antiproliferative activity against human PC3 assessed as combination index at 20 uM incubated for 72 hrs in presence of GI50 dose of Bortezomib by CellTiter-Glo luminescence assay; type: functional
NCI-H1650 = assay: Antiproliferative activity against human NCI-H1650 cells incubated for 72 hrs by CellTiter-Glo luminescence assay; type: functional; conditions: NCI-H1650, 72 h
A-375 = assay: Antiproliferative activity against human A375 cells incubated for 72 hrs by CellTiter-Glo luminescence assay; type: functional; conditions: A-375, 72 h
[16] = target: T1, Serine/threonine-protein kinase pim-1; assay: Inhibition of His tagged human recombinant PIM1 using PIM tide (ARKRRRHPSGPPTA) as substrate incubated for 1 hr by fluorescence based assay
MCF7 = assay: Antiproliferative activity against human MCF7 cells incubated for 72 hrs by CellTiter-Glo luminescence assay; type: functional; conditions: MCF7, 72 h
MV4-11 [17] = assay: Antiproliferative activity against human MV4-11 assessed as combination index at 10 uM incubated for 72 hrs in presence of GI50 dose of Lapatinib by CellTiter-Glo luminescence assay; type: functional
MDA-MB-231 [18] = assay: Antiproliferative activity against human MDA-MB-231 assessed as combination index at 20 uM incubated for 72 hrs in presence of GI50 dose of Lapatinib by CellTiter-Glo luminescence assay; type: functional
SK-MEL19 [19] = assay: Antiproliferative activity against human SK-MEL-19 assessed as combination index at 5 uM incubated for 72 hrs in presence of GI50 dose of Palbociclib by CellTiter-Glo luminescence assay; type: functional
MV4-11 [20] = assay: Antiproliferative activity against human MV4-11 cells incubated for 72 hrs by CellTiter-Glo luminescence assay; type: functional; conditions: MV4-11, 72 h
MDA-MB-231 [21] = assay: Antiproliferative activity against human MDA-MB-231 assessed as combination index at 20 uM incubated for 72 hrs in presence of GI50 dose of PD-0325901 by CellTiter-Glo luminescence assay; type: functional
LNCaP = assay: Antiproliferative activity against human LNCAP cells incubated for 72 hrs by CellTiter-Glo luminescence assay; type: functional
SK-OV-3 = assay: Antiproliferative activity against human SKOV3 cells incubated for 72 hrs by CellTiter-Glo luminescence assay; type: functional; conditions: SK-OV-3, 72 h
ASPC1 = assay: Antiproliferative activity against human Aspc-1 cells incubated for 72 hrs by CellTiter-Glo luminescence assay; type: functional; conditions: ASPC1, 72 h
A673 = assay: Antiproliferative activity against human A673 cells incubated for 72 hrs by CellTiter-Glo luminescence assay; type: functional; conditions: A673, 72 h
SW-620 = assay: Antiproliferative activity against human SW620 cells incubated for 72 hrs by CellTiter-Glo luminescence assay; type: functional; conditions: SW-620, 72 h
K562 = assay: Antiproliferative activity against human K562 cells incubated for 72 hrs by CellTiter-Glo luminescence assay; type: functional; conditions: K562, 72 h

GI50 (SW480): 8.17 µM | pEC50 [2]: 6.58 | GI50 (PC-3 [3]): 17.1 µM | GI50 (COLO 205): 5.25 µM | GI50 (T47D [7]): 10.8 µM | GI50 (Raji): 20 µM | GI50 (BXPC-3): 9.21 µM | clearance [10]: 21 mL/min/kg | GI50 (U-87 MG [11]): 21.7 µM | GI50 (A549): 16.2 µM | pIC50 [13]: 7.15 | GI50 (HCT-116 [14]): 21.2 µM | GI50 (NCI-H1650): 22.5 µM | GI50 (A-375): 21.8 µM | pIC50 [16]: 8.15 | GI50 (MCF7): 19.6 µM | GI50 (MV4-11 [20]): 6.46 µM | GI50 (LNCaP): 18.6 µM | GI50 (SK-OV-3): 23.5 µM | GI50 (ASPC1): 7.25 µM | GI50 (SW-620): 8.73 µM | GI50 (K562): 19.9 µM
Structure (SMILES): COCCN1CCOc2c1cnn1c(-c3ccc4cccc(NCC5CCNCC5)c4n3)nnc21
CI (U-87 MG [1]): 0.43 | CI (MV4-11 [4]): 0.334 | GI50 (A498): 8.98 µM | CI (SK-MEL19 [5]): 0.308 | CI (T47D [6]): 0.598 | CI (DU-145): 0.0001 | CI (JeKo-1): 0.295 | CI (U-87 MG [8]): 0.008 | CI (HCT-116 [9]): 0.001 | pIC50 [12]: < 4.70 | GI50 (T84): 23.2 µM | CI (PC-3 [15]): 0.313 | CI (MV4-11 [17]): 0.43 | CI (MDA-MB-231 [18]): 0.116 | CI (SK-MEL19 [19]): 0.351 | CI (MDA-MB-231 [21]): 0.32 | GI50 (A673): 12.7 µM
